{"source": "paper PMC11065314", "about": "“Identification of compounds that cause axonal dieback without cytotoxicity in dorsal root ganglia explants and intervertebral disc cells with potential to treat pain via denervation” (PLOS ONE, 2024)", "key": {"[1]": {"test_system": "dissociated neonatal DRG neurons", "design": "method as in PMID 7617165", "details": "30 μM, within 24 hours; cited from earlier work"}, "rat DRG explants": {"test_system": "rat DRG explants", "assay": "DRG cytotoxicity assessment using LDH assay", "type": "cell-based", "details": "for Cytotoxicity (%): single well; for Overall cytotoxicity lower compared to lysed DRGs: all concentrations tested, day 3", "procedure": "(§1) 500 nM Imy and 10 nM Vcr were excluded from female rat DRG experiments while 500 nM Vcr and 1 mM Pyr were excluded from male rat DRG experiments due to insufficient DRG replicates with axon outgrowth. DRG media was removed from wells and transferred into a 96-well plate for pre-treat LDH cytotoxicity assay (see Methods below). 300 μL of media treatment solutions or solvent control solutions were added to wells. DRGs were incubated with treatment solutions for three days, and brightfield images at 4X magnification were taken using BioTek Cytation1 Plate Imager (Agilent) before treatment (day -1) and on days 1, 2 and 3 after treatment. DRGs from adult male and female rats were tested to determine if sex can affect axonal dieback. In total, 12 to 15 DRG replicates per group by sex harvested from n = 3 male and n = 3 female rats were tested.\n(§2) Lactate dehydrogenase (LDH) is a cytosolic enzyme present in all cells. Dissociated rat DRG neurons release LDH during tunicamycin-induced apoptosis. […] An ideal axonal dieback compound should cause axonal degeneration without neurotoxicity. was assessed on day 3 post-treat and normalized to pre-treat levels to account for variability in DRG size and growth and calculated as a percentage of cytotoxicity to lysed DRGs (positive control). 50 μL of pre-treatment and post-treatment media were aliquoted in duplicates into a 96-well plate. LDH activity in the media post-treat was assessed using the CyQUANT^TM LDH Cytotoxicity Assay Kit (Thermo Fisher Scientific, C20301) according to the manufacturer’s instructions. Briefly, 50 μL of Substrate Mix was added to each well and then incubated at room temperature for 30 minutes protected from light. 50 μL of Stop solution was added to each well and the absorbance at 490 nm and 680 nm was measured using a microplate reader (Agilent). LDH activity of each DRG was calculated as the difference between absorbance at 490 nm after subtracting the background absorbance at 680 nm. As a positive control, 13 female rat DRGs and 15 male rat DRGs were treated for three days with Lysis buffer solution, provided in the kit, diluted 1:5.45 in DRG media. The percentage of cytotoxicity was calculated following Eq 2. Pre-treat levels of LDH activity were subtracted from post-treat LDH activity in each DRG to remove baseline LDH activity then percentage of cytotoxicity compared to positive control lysed DRG LDH activity was calculated. Sex is a biological factor that can influence neurotoxicity. Thus, percentage of cytotoxicity of total 11 to 14 DRG replicates per group by sex from n = 3 male and n = 3 female rats were tested.\n(§3) Cytotoxicity(%)=(PosttreatLDHactivity)−(PretreatLDHactivity)/(MaximumLDHactivityfromlysedDRGs)−(PretreatLDHactivity)×100% (2)"}, "adult rat DRG explants": {"test_system": "adult rat DRG explants", "type": "cell-based"}, "[2]": {"design": "method as in PMID 30888737", "details": "intraarticular injection; cited from earlier work"}, "[3]": {"assay": "DRG cytotoxicity assessment using LDH assay", "type": "cell-based, rat", "details": "female, rat, rat dorsal root ganglion (DRG) explants, female rat DRG explant, single well", "procedure": "as §1, §2, §3"}, "sciatic nerves": {"test_system": "sciatic nerves", "design": "method as in PMID 3126271", "details": "applied onto sciatic nerves; cited from earlier work"}, "Human NP cells [4]": {"test_system": "Human NP cells", "assay": "NP cell metabolic activity (AlamarBlue reduction)", "type": "cell-based", "procedure": "(§4) Nucleus pulposus (NP) cells are native matrix-producing cells at the core of intervertebral discs. To repurpose axonal dieback compounds to denervate aberrant nerve fibers in discs related to chronic LBP, the cytocompatibility of these compounds with NP cells must be evaluated. Human NP cells (Sciencell, 4800) from donor 1 (Lot #5954) and donor 2 (Lot# 21579) were cultured according to previously established protocol in our lab adapted from manufacturer’s instructions. Briefly, passage three cells from both donors were expanded in Poly-L-lysine (PLL) (Sciencell, 413) coated T75 flasks. Cells were then lifted and reseeded at 5,000 cells/cm^2 onto two PLL-coated 48-well plates (Greiner Bio-One, 677180) and allowed to attach overnight before treating with Pyr or Vcr. One plate was used for LIVE/DEAD staining and the other plate was used for AlamarBlue assay as described below. Complete NP cell media (Sciencell, 4801) containing basal media supplemented with 1% penicillin-streptomycin, 1% growth supplement and 2% FBS were used for maintaining cells in culture. To mimic the hypoxic disc environment, NP cells were cultured in a hypoxia chamber (Stem Cell Technologies, 27310) with 5% CO2, 3.5% O2, 91.5% N2 (Airgas) during the entire culture and treatment incubation period.\n(§5) Pyr stock solution was diluted in complete NP media to achieve final concentrations of 500 μM, 1 mM and 2 mM Pyr. 16.9 μg/mL and 169 μg/mL Vcr stock solutions were prepared in 1X PBS then diluted in complete NP media to achieve final concentrations of 10, 25, 50, 100 nM and 200, 500 nM, respectively. Cells were incubated with 250 μL of final treatment solutions in duplicate wells per donor for three days. Cells in negative control group were incubated with 250 μL of complete NP media with 0.55% v/v 1X PBS as solvent control. On day 3 post-treatment, brightfield images at 4X magnification were taken using a BioTek Cytation1 Plate Imager (Agilent) to verify cell proliferation and observe cell morphology. Three experimental replicates were performed for each cell donor.\nOn day 3 of incubation with drugs, 25 μL (10% v/v of media volume) of AlamarBlue HS cell viability reagent (Thermo Fisher Scientific, A50100) were added into each well. Cells were incubated with the AlamarBlue reagent for 2 hours at 37°C under hypoxia then 60 μL aliquots of cell media were removed in duplicates into a 96-well plate. The absorbance at 570 and 600 nm were read using a microplate reader (Agilent) and calculations for AlamarBlue reduction were calculated according to the manufacturer’s protocol. To account for different cell confluency between donors and groups, AlamarBlue reduction was normalized to estimated total number of cells per well obtained from LIVE/DEAD staining. Cellular metabolic activity in treated groups was reported as a ratio of normalized AlamarBlue reduction to PBS control group."}, "Human NP cells [5]": {"test_system": "Human NP cells", "assay": "Quantification of viable NP cells (LIVE/DEAD staining)", "type": "cell-based", "procedure": "as §4, §5\n(§6) On day 3 of incubation with drug, media treatment solutions were removed from each well and cells were carefully rinsed with 200 μL of sterile 1X PBS to remove excess media. NP cells were stained with 150 μL of 2 μM Calcein AM and 6 μM EtHD-1 solution from LIVE/DEAD Viability/Cytotoxicity Kit (Thermo Fisher Scientific, L3224) for 30 minutes at room temperature protected from light. After staining, cells were gently rinsed with 200 μL sterile 1X PBS to remove excess staining solution. Excitation and emission wavelengths for live cell fluorescence is 495 and 515 nm and dead cell fluorescence is 495 and 635 nm. Using a BioTek Cytation1 Plate Imager (Agilent), GFP filter cube (Agilent, 1225101, ex: 451.5–486.5 nm, em: 505.5–544.5 nm) and RFP filter cubes (Agilent, 1225103, ex: 511-551nm, em: 573–613 nm), fluorescent images at 4X magnification of four regions per well were taken. Gen5 v3.11 software (Agilent) was used to count green (live) and orange (dead) cells in fluorescent images. Dead NP cell staining was verified and evident by positive EtHD-1 orange staining in kill control wells where cells were treated with 70% EtOH for 10 minutes (S4 Fig). Percentage of live cells were calculated by calculating the percentage of live cells over total cell counts as shown in Eq 3.\n(§7) Cellviability(%)=Livecellcounts/Livecellcounts+Deadcellcounts×100% (3)"}, "[6]": {"assay": "Quantification of viable NP cells (LIVE/DEAD staining)", "type": "cell-based, human", "details": "both sexes, human; 500 μM, 1 mM and 2 mM, day 3 post-treatment, either donor; read-out: Percentage of viable cells", "procedure": "as §4, §5, §6, §7"}, "[7]": {"details": "500 µM, donor 1, day 3, single wells (Exp, Rep)"}, "[8]": {"details": "500 µM, donor 2, day 3, single wells (Exp, Rep)"}, "[9]": {"details": "1 mM, donor 1, day 3, single wells (Exp, Rep)"}, "[10]": {"details": "1 mM, donor 2, day 3, single wells (Exp, Rep)"}, "[11]": {"details": "2 mM, donor 1, day 3, single wells (Exp, Rep)"}}, "note": "Where “and” joins values, the source holds several entries; their conditions need not be identical. Identical values can stand only once. Counter-ions that a name gives are not always drawn.", "data": [{"smiles": "COc1cc(CNC(=O)CCCC/C=C/C(C)C)ccc1O", "note": "[Caps, capsaicin]", "values": [{"measurement": "Cell death", "setting": "[1]", "value": "induced significant cell death"}, {"measurement": "Percentage of cytotoxicity lower than in lysed DRGs", "setting": "rat DRG explants; 3.79 mM, 3-day incubation", "value": 90.2, "unit": "%"}, {"measurement": "Cytotoxicity (%)", "setting": "rat DRG explants; 3.79 mM, male rat DRG explant", "value": 16.4427, "unit": "%"}, {"measurement": "Overall cytotoxicity lower compared to lysed DRGs", "setting": "rat DRG explants", "value": "at least 88%"}, {"measurement": "Median axon length ratio (interquartile range)", "setting": "adult rat DRG explants", "value": "0.657 (0.359–0.750) and 0.453 (0.270–0.624)"}, {"measurement": "Duration of alleviation of knee pain", "setting": "[2]", "value": "about 18 weeks"}]}, {"smiles": "C[C@H](CCC(=O)O)C[C@H](C)C[C@H](C)C(=O)/C=C(\\O)[C@H](C)C[C@H](C)C/C=C/[C@@H](C)[C@@H](O)[C@@H](C)[C@@H](O)C[C@@H]1CC[C@@](C)([C@H]2CC[C@@](C)([C@@H](C)O)O2)O1", "note": "[Imy, Ionomycin]", "values": [{"measurement": "Cytotoxicity (%)", "setting": "rat DRG explants; 0.77 µM, female rat DRG explant", "value": "6.379% and 11.5202%"}, {"measurement": "Overall cytotoxicity lower compared to lysed DRGs", "setting": "rat DRG explants", "value": "at least 88%"}, {"measurement": "cytotoxicity at 3 days, 0.77 µM", "setting": "[3]; 0.77 µM", "value": 8.76, "unit": "%"}, {"measurement": "Change in axon length ratio between timepoints", "setting": "adult rat DRG explants", "value": "no significant differences were observed between timepoints"}, {"measurement": "Decrease in axon length", "setting": "adult rat DRG explants", "value": 10, "unit": "%"}, {"measurement": "Median axon length ratio (interquartile range)", "setting": "adult rat DRG explants", "value": "0.977 (0.852–1.004) and 0.9 (0.75–0.985) and 0.982 (0.854–1.121)"}, {"measurement": "Fibers exhibiting large nerve lesions", "setting": "sciatic nerves", "value": "up to 95%"}]}, {"smiles": "Cc1ncc(CO)c(CO)c1O", "note": "[Pyr, Pyridoxine hydrochloride]", "values": [{"measurement": "AlamarBlue reduction normalized to cell counts compared to PBS control", "setting": "Human NP cells [4]; 500 μM, 1 mM and 2 mM, day 3", "value": "not significantly different between PBS control and all treated groups"}, {"measurement": "AB reduction per cell (%)", "setting": "Human NP cells [4]; [7]", "value": "0.001757% and 0.001402% and 0.001221% and 0.001189% and 0.001666% and 0.001549%"}, {"measurement": "AB reduction per cell (%)", "setting": "Human NP cells [4]; [8]", "value": "0.002098% and 0.001803% and 0.002358% and 0.001696% and 0.002473% and 0.003239%"}, {"measurement": "AB reduction per cell (%)", "setting": "Human NP cells [4]; [9]", "value": "0.001279% and 0.001156% and 0.001657% and 0.001546%"}, {"measurement": "AB reduction per cell (%)", "setting": "Human NP cells [4]; [10]", "value": "0.001937% and 0.002155% and 0.002387% and 0.003301%"}, {"measurement": "AB reduction per cell (%)", "setting": "Human NP cells [4]; [11]", "value": "0.002206% and 0.002078% and 0.002787% and 0.003671% and 0.002259% and 0.001426%"}, {"measurement": "AB reduction per cell (%)", "setting": "Human NP cells [4]; 2 mM, donor 2, day 3, single wells (Exp, Rep)", "value": "0.00138% and 0.001132% and 0.01401% and 0.003735% and 0.006792% and 0.003692%"}, {"measurement": "Percent live (%)", "setting": "Human NP cells [5]; [7]", "value": "99.8382% and 99.8845% and 99.1403% and 98.8605% and 99.9471% and 98.2749%"}, {"measurement": "Percent live (%)", "setting": "Human NP cells [5]; [8]", "value": "97.5506% and 96.954% and 96.3405% and 99.1395% and 96.5794% and 98.8823%"}, {"measurement": "Percent live (%)", "setting": "Human NP cells [5]; [9]", "value": "99.8893% and 99.7678% and 99.8269% and 99.7809%"}, {"measurement": "Percent live (%)", "setting": "Human NP cells [5]; [10]", "value": "96.1436% and 95.9726% and 96.9575% and 96.5249%"}, {"measurement": "Percent live (%)", "setting": "Human NP cells [5]; [11]", "value": "98.6699% and 99.5161% and 83.5317% and 86.125% and 97.6421% and 98.8217%"}, {"measurement": "viability at 3 days", "setting": "[6]", "value": "> 89", "unit": "%"}, {"measurement": "Cytotoxicity (%)", "setting": "rat DRG explants; 50 µM, female rat DRG explant", "value": "1.523% and -1.428% and 2.095%"}, {"measurement": "Cytotoxicity (%)", "setting": "rat DRG explants; 500 µM, female rat DRG explant", "value": "8.854% and 7.426%"}, {"measurement": "Cytotoxicity (%)", "setting": "rat DRG explants; 1 mM, female rat DRG explant", "value": "4.951% and 3.523%"}, {"measurement": "cytotoxicity at 3 days, 500 µM", "setting": "[3]; 500 µM", "value": 5.33, "unit": "%"}, {"measurement": "cytotoxicity at 3 days, 1 mM", "setting": "[3]; 1 mM", "value": 3.24, "unit": "%"}, {"measurement": "Axonal dieback over time and against solvent control", "setting": "adult rat DRG explants", "value": "did not induce significant axonal dieback"}, {"measurement": "Day on which Caps axon length ratio threshold (0.45) was met", "setting": "adult rat DRG explants", "value": "≤ 2", "unit": "days"}, {"measurement": "Median axon length ratio (interquartile range)", "setting": "adult rat DRG explants", "value": "0.607 (0.418–0.875) and 0.539 (0.317–0.676) and 0.451 (0.347–0.587)"}]}]}
